Here are results for three compounds from US11713344B2 (DONG-A ST CO., LTD., priority 2017, dated 2023).

Experiment [1] has as its target Human GLP-1 receptors (Homo sapiens, UniProt P43220). In words: GLP-1 receptor activation assay (CRE-luciferase reporter, CHO-K1).
Experiment [2] has as its target Human glucagon receptors (Homo sapiens, UniProt P47871). Description: Glucagon receptor activation assay (CRE-luciferase reporter, CHO-K1). (In a reporter assay the amount or activity of a reporter protein is the signal.)
Procedure: Then, the resulting increased luciferase activity was evaluated as a measurement of the effect on each receptor activation.
After 3 hours of transfection, medium was exchanged to Alpha Minimal Essential Medium (α-MEM) comprising 10% fetal bovine serum (FBS). Next day, the medium was exchanged to α-MEM comprising the analog of the present invention and 0.1% bovine serum albumin (BSA). After 6 hours, dual luciferase assay reagent was added in the same amount as the medium in which the cells were submerged, and firefly luciferase and Renilla luciferase activities were continuously measured. Firefly luciferase activity values were corrected against Renilla luciferase activity to yield transfection efficiency.

Sequence of Human glucagon receptors (P47871 26-477): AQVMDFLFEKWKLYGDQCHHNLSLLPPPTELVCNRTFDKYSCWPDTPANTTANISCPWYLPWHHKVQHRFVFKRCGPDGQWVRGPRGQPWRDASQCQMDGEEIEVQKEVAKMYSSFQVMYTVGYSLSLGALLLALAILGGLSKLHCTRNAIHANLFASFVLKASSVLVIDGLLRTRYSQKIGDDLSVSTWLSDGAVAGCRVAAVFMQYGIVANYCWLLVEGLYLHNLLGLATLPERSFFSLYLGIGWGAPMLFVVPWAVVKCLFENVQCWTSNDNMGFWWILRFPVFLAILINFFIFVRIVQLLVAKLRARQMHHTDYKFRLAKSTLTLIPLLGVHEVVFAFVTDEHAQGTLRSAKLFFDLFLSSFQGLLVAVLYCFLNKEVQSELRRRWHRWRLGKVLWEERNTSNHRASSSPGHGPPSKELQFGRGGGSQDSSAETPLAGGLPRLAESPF
Sequence of Human GLP-1 receptors (P43220 24-463): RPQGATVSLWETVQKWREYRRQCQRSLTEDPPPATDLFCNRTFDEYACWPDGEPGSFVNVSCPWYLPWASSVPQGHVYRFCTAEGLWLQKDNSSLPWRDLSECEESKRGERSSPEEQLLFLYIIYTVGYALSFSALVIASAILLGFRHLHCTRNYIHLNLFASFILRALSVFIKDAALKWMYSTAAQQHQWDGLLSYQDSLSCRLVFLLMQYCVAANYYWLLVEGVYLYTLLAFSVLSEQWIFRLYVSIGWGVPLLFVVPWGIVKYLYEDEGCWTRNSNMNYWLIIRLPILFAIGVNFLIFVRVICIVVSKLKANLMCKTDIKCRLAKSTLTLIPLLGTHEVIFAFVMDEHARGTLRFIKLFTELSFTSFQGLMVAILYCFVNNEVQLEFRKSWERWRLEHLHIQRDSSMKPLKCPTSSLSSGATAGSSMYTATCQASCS

As for `CCCCCCCCCCCCCCCCCC(=O)N[C@@H](CCC(=O)NCCOCCOCC(=O)NCCOCCOCC(=O)NCCCC[C@H](NC(=O)[C@H](CC(=O)O)NC(=O)[C@H](CO)NC(=O)[C@@H](NC(=O)[C@H](Cc1ccccc1)NC(=O)[C@@H](NC(=O)CNC(=O)[C@H](CCC(N)=O)NC(=O)C(C)(C)NC(=O)[C@@H](N)Cc1c[nH]cn1)[C@@H](C)O)[C@@H](C)O)C(=O)N[C@@H](CO)C(=O)N[C@@H](CCCCN)C(=O)N[C@@H](Cc1ccc(O)cc1)C(=O)N[C@@H](CC(C)C)C(=O)N[C@@H](CC(=O)O)C(=O)N[C@H]1CCC(=O)NC2CCC(CC2)C(=O)NCCCC[C@@H](C(=O)N[C@@H](CC(=O)O)C(=O)N[C@@H](Cc2ccccc2)C(=O)N[C@H](C(=O)N[C@@H](CCC(N)=O)C(=O)N[C@@H](Cc2c[nH]c3ccccc23)C(=O)N[C@@H](CC(C)C)C(=O)N[C@@H](CCSC)C(=O)N[C@@H](CC(N)=O)C(=O)N[C@H](C(=O)N[C@@H](CCCCN)C(=O)O)[C@@H](C)O)C(C)C)NC(=O)[C@H](C)NC(=O)[C@H](CCCNC(=N)N)NC(=O)[C@H](CCCNC(=N)N)NC1=O)C(=O)O` [Compound 33, H-HAibQGTFTSDZSKYLDERRAKDFVQWLMNTK-OH], the EC50 in experiment [1] and in experiment [2] was under 10 pM in each case.

Consider `CCCCCCCCCCCCCCCCCC(=O)N[C@@H](CCC(=O)NCCOCCOCC(=O)NCCOCCOCC(=O)NCCCC[C@H](NC(=O)[C@H](CC(=O)O)NC(=O)[C@H](CO)NC(=O)[C@@H](NC(=O)[C@H](Cc1ccccc1)NC(=O)[C@@H](NC(=O)CNC(=O)[C@H](CCC(N)=O)NC(=O)C(C)(C)NC(=O)[C@@H](N)Cc1c[nH]cn1)[C@@H](C)O)[C@@H](C)O)C(=O)N[C@@H](CO)C(=O)N[C@@H](CCCCN)C(=O)N[C@@H](Cc1ccc(O)cc1)C(=O)N[C@@H](CC(C)C)C(=O)N[C@@H](CC(=O)O)C(=O)N[C@H]1CCC(=O)NCC(=O)NCCCC[C@@H](C(=O)N[C@@H](CC(=O)O)C(=O)N[C@@H](Cc2ccccc2)C(=O)N[C@H](C(=O)N[C@@H](CCC(N)=O)C(=O)N[C@@H](Cc2c[nH]c3ccccc23)C(=O)N[C@@H](CC(C)C)C(=O)N[C@@H](CCSC)C(=O)N[C@@H](CC(N)=O)C(=O)N[C@H](C(=O)N[C@@H](CCCCN)C(=O)O)[C@@H](C)O)C(C)C)NC(=O)[C@H](C)NC(=O)[C@H](CCCNC(=N)N)NC(=O)[C@H](CCCNC(=N)N)NC1=O)C(=O)O` [Compound 35, H-HAibQGTFTSDZSKYLDERRAKDFVQWLMNTK-OH], for which the EC50 in experiment [1] and in experiment [2] was under 10 pM in each case.

With `CCCCCCCCCCCCCCCCCC(=O)N[C@@H](CCC(=O)NCCOCCOCC(=O)NCCOCCOCC(=O)NCCCC[C@H](NC(=O)[C@H](CC(=O)O)NC(=O)[C@H](CO)NC(=O)[C@@H](NC(=O)[C@H](Cc1ccccc1)NC(=O)[C@@H](NC(=O)CNC(=O)[C@H](CCC(N)=O)NC(=O)C(C)(C)NC(=O)[C@@H](N)Cc1c[nH]cn1)[C@@H](C)O)[C@@H](C)O)C(=O)N[C@@H](CO)C(=O)N[C@@H](CCCCN)C(=O)N[C@@H](Cc1ccc(O)cc1)C(=O)N[C@@H](CC(C)C)C(=O)N[C@@H](CC(=O)O)C(=O)N[C@H]1CC(=O)NCC(=O)NCCCC[C@@H](C(=O)N[C@@H](CC(=O)O)C(=O)N[C@@H](Cc2ccccc2)C(=O)N[C@H](C(=O)N[C@@H](CCC(N)=O)C(=O)N[C@@H](Cc2c[nH]c3ccccc23)C(=O)N[C@@H](CC(C)C)C(=O)N[C@@H](CCSC)C(=O)N[C@@H](CC(N)=O)C(=O)N[C@H](C(=O)N[C@@H](CCCCN)C(=O)O)[C@@H](C)O)C(C)C)NC(=O)[C@H](C)NC(=O)[C@H](CCCNC(=N)N)NC(=O)[C@H](CCCNC(=N)N)NC1=O)C(=O)O` [Compound 37, H-HAibQGTFTSDZSKYLDDRRAKDFVQWLMNTK-OH], the EC50 in experiment [1] and in experiment [2] was under 10 pM each time.
